# Data: patent publication US20060030616A1, “Anhydride modified cantharidin analogues useful in the treatment of cancer” (priority 1998, published 2006)
# Like-named read-outs stand apart in the source and are kept apart here.
# Key:
# [1] = system: HCT116 cells; experiment: Checkpoint abrogation after 6 Gy radiation, flow cytometry; format: cell-based, human; details: 12 h after drug
# Protocol: (§1) The cells are fixed in 70% ethanol and stored at −20° C. until analysis is performed (1-2 weeks). After fixing, the cells are pelleted and incubated in PBS containing propidium iodide ([…]) and RNase A (200 mg/ml) for at least 30 min at room temperature. The samples (2×10^4 events) are analysed using a Becton Dickson FACScan, fluorescence is collected in fluorescence detector 2 (FL2), filter 575/30 nm band pass. Cell cycle distribution is assessed using Cell Quest software (Becton Dickson).
# (§2) The ability of the protein phosphatase inhibitors to abrogate the G1 or G2 checkpoint of the cell cycle may be determined by cell cycle analysis using flow cytometry. Briefly, asynchronous cell cultures are harvested 18 h after 6 Gy irradiation and/or 12 h incubation with the protein phosphatase inhibitor. Depending upon the p53 status of the cell line, radiation treatment alone will induce arrest in either G1 and/or G2 phase of the cell cycle.
# (§3) If the protein phosphatase inhibitor abrogates the G2 checkpoint then the cells will not arrest in the G2 phase of the cell cycle and the cells will continue through the cell cycle and accumulate in the G1 phase of the cell cycle only. Similarily if the protein phosphatase inhibitors abrogates the G1 checkpoint then the cells will not arrest in the G1 phase of the cell cycle and accumulate in the G2 phase of the cell cycle only. Cell cycle analysis using propidium iodide labelling of DNA has been used extensively in our laboratory to assess the effect of specific anticancer agents that induce S-phase cell cycle arrest and apoptotic cell death (Sakoff, Ackland and Stewart, 1998). Experiments were performed on a Becton Dickinson FACScan and using Cell Quest software.
# (§4) The cells were treated with 6 Gy of radiation and then treated with cantharidin 6 h later. The ability to abrogate cell cycle arrest was assessed is 12 h after the addition of the drugs.
# [2] = system: HL60 cells; experiment: as above; format: cell-based, human; details: 12 h after drug
# Protocol: as §1, §2, §3, §4
# [3] = system: HT29 cells; experiment: as above; format: cell-based, human; details: 12 h after drug
# Protocol: as §1, §2, §3, §4
# [4] = system: L1210 cells; experiment: as above; format: cell-based, murine; details: 12 h after drug
# Protocol: as §1, §2, §3, §4
# [5] = system: L1210 cells; experiment: MTT cytotoxicity assay, 72 h; format: cell-based, murine; details: L1210, p53 wt; read-out: IC50 (mean ± SE) after 72 h continuous exposure
# Procedure, shortened: (§5)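 Each line is plated (L1210 at 1000, others at 2000-25000 cells/well), rested 24 h, then exposed to inhibitor for 72 h with medium-only controls. Formazan from MTT is measured at 540 nm. A dose-response fit gives the IC50.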
# [6] = system: nine cancer cell lines; experiment: MTT cytotoxicity assay, 72 h, ranges over cell line panel; format: cell-based
# Procedure, shortened: as §5
compound,measurement,setting,value
O=C1OC(O)C2C3CCC(O3)C12 (stereo not shown) [MK-4],"Cell Cycle Distribution, G1","[1]; HCT116, 50 μM, 18 h after 6Gy",26.7 percentage of total
same,"Cell Cycle Distribution, G2 + M","[1]; HCT116, 50 μM, 18 h after 6Gy",61.3 percentage of total
same,"Cell Cycle Distribution, S","[1]; HCT116, 50 μM, 18 h after 6Gy",5.8 percentage of total
same,"Cell Cycle Distribution, sub G","[1]; HCT116, 50 μM, 18 h after 6Gy",6.3 percentage of total
same,"Cell Cycle Distribution, G1","[1]; HCT116, 100 μM, 18 h after 6Gy",18.4 percentage of total
same,"Cell Cycle Distribution, G2 + M","[1]; HCT116, 100 μM, 18 h after 6Gy",69.3 percentage of total
same,"Cell Cycle Distribution, S","[1]; HCT116, 100 μM, 18 h after 6Gy",9.7 percentage of total
same,"Cell Cycle Distribution, sub G","[1]; HCT116, 100 μM, 18 h after 6Gy",3.3 percentage of total
same,"Cell Cycle Distribution, G1","[1]; HCT116, 250 μM, 18 h after 6Gy",16.3 percentage of total
same,"Cell Cycle Distribution, G2 + M","[1]; HCT116, 250 μM, 18 h after 6Gy",67.8 percentage of total
same,"Cell Cycle Distribution, S","[1]; HCT116, 250 μM, 18 h after 6Gy",8.2 percentage of total
same,"Cell Cycle Distribution, sub G","[1]; HCT116, 250 μM, 18 h after 6Gy",8.2 percentage of total
same,"Cell Cycle Distribution, G1","[1]; HCT116, 500 μM, 18 h after 6Gy",13.1 percentage of total
same,"Cell Cycle Distribution, G2 + M","[1]; HCT116, 500 μM, 18 h after 6Gy",61.9 percentage of total
same,"Cell Cycle Distribution, S","[1]; HCT116, 500 μM, 18 h after 6Gy",10.6 percentage of total
same,"Cell Cycle Distribution, sub G","[1]; HCT116, 500 μM, 18 h after 6Gy",14.9 percentage of total
same,Checkpoint remark,"[1]; HCT116, 500 μM, 18 h after 6Gy",G1 abrogation
same,Checkpoint abrogation,"[1]; HCT116, 6 Gy",abrogated G1 arrest
same,"Cell Cycle Distribution, G1","[2]; HL60, 50 μM, 18 h after 6Gy",6.2 percentage of total
same,"Cell Cycle Distribution, G2 + M","[2]; HL60, 50 μM, 18 h after 6Gy",82.3 percentage of total
same,"Cell Cycle Distribution, S","[2]; HL60, 50 μM, 18 h after 6Gy",2.8 percentage of total
same,"Cell Cycle Distribution, sub G","[2]; HL60, 50 μM, 18 h after 6Gy",8.9 percentage of total
same,"Cell Cycle Distribution, G1","[2]; HL60, 100 μM, 18 h after 6Gy",6.2 percentage of total
same,"Cell Cycle Distribution, G2 + M","[2]; HL60, 100 μM, 18 h after 6Gy",80.8 percentage of total
same,"Cell Cycle Distribution, S","[2]; HL60, 100 μM, 18 h after 6Gy",3.4 percentage of total
same,"Cell Cycle Distribution, sub G","[2]; HL60, 100 μM, 18 h after 6Gy",9.8 percentage of total
same,"Cell Cycle Distribution, G1","[2]; HL60, 250 μM, 18 h after 6Gy",5.8 percentage of total
same,"Cell Cycle Distribution, G2 + M","[2]; HL60, 250 μM, 18 h after 6Gy",82.2 percentage of total
same,"Cell Cycle Distribution, S","[2]; HL60, 250 μM, 18 h after 6Gy",3.1 percentage of total
same,"Cell Cycle Distribution, sub G","[2]; HL60, 250 μM, 18 h after 6Gy",9.3 percentage of total
same,"Cell Cycle Distribution, G1","[2]; HL60, 500 μM, 18 h after 6Gy",5.2 percentage of total
same,"Cell Cycle Distribution, G2 + M","[2]; HL60, 500 μM, 18 h after 6Gy",78.2 percentage of total
same,"Cell Cycle Distribution, S","[2]; HL60, 500 μM, 18 h after 6Gy",5.4 percentage of total
same,"Cell Cycle Distribution, sub G","[2]; HL60, 500 μM, 18 h after 6Gy",11.6 percentage of total
same,Checkpoint remark,"[2]; HL60, 500 μM, 18 h after 6Gy",Cell Death
same,Checkpoint abrogation,"[2]; HL60, 6 Gy",abrogated G1 arrest
same,"Cell Cycle Distribution, G1","[3]; HT29, 50 μM, 18 h after 6Gy",28.9 percentage of total
same,"Cell Cycle Distribution, G2 + M","[3]; HT29, 50 μM, 18 h after 6Gy",48.4 percentage of total
same,"Cell Cycle Distribution, S","[3]; HT29, 50 μM, 18 h after 6Gy",16.4 percentage of total
same,"Cell Cycle Distribution, sub G","[3]; HT29, 50 μM, 18 h after 6Gy",6.8 percentage of total
same,"Cell Cycle Distribution, G1","[3]; HT29, 100 μM, 18 h after 6Gy",33.3 percentage of total
same,"Cell Cycle Distribution, G2 + M","[3]; HT29, 100 μM, 18 h after 6Gy",43.3 percentage of total
same,"Cell Cycle Distribution, S","[3]; HT29, 100 μM, 18 h after 6Gy",17.2 percentage of total
same,"Cell Cycle Distribution, sub G","[3]; HT29, 100 μM, 18 h after 6Gy",6.3 percentage of total
same,"Cell Cycle Distribution, G1","[3]; HT29, 250 μM, 18 h after 6Gy",35.2 percentage of total
same,"Cell Cycle Distribution, G2 + M","[3]; HT29, 250 μM, 18 h after 6Gy",36.5 percentage of total
same,"Cell Cycle Distribution, S","[3]; HT29, 250 μM, 18 h after 6Gy",17.3 percentage of total
same,"Cell Cycle Distribution, sub G","[3]; HT29, 250 μM, 18 h after 6Gy",10.3 percentage of total
same,"Cell Cycle Distribution, G1","[3]; HT29, 500 μM, 18 h after 6Gy",39.4 percentage of total
same,"Cell Cycle Distribution, G2 + M","[3]; HT29, 500 μM, 18 h after 6Gy",37.7 percentage of total
same,"Cell Cycle Distribution, S","[3]; HT29, 500 μM, 18 h after 6Gy",19.2 percentage of total
same,"Cell Cycle Distribution, sub G","[3]; HT29, 500 μM, 18 h after 6Gy",3.9 percentage of total
same,Checkpoint remark,"[3]; HT29, 500 μM, 18 h after 6Gy",G2 abrogation
same,Checkpoint abrogation,"[3]; HT29, 6 Gy",abrogation of the G2 checkpoint
same,"Cell Cycle Distribution, G1","[4]; L1210, 50 μM, 18 h after 6Gy",21.2 percentage of total
same,"Cell Cycle Distribution, G2 + M","[4]; L1210, 50 μM, 18 h after 6Gy",50.3 percentage of total
same,"Cell Cycle Distribution, S","[4]; L1210, 50 μM, 18 h after 6Gy",28.5 percentage of total
same,"Cell Cycle Distribution, sub G1","[4]; L1210, 50 μM, 18 h after 6Gy",1.8 percentage of total
same,"Cell Cycle Distribution, G1","[4]; L1210, 100 μM, 18 h after 6Gy",22.0 percentage of total
same,"Cell Cycle Distribution, G2 + M","[4]; L1210, 100 μM, 18 h after 6Gy",49.7 percentage of total
same,"Cell Cycle Distribution, S","[4]; L1210, 100 μM, 18 h after 6Gy",27.4 percentage of total
same,"Cell Cycle Distribution, sub G1","[4]; L1210, 100 μM, 18 h after 6Gy",2.4 percentage of total
same,"Cell Cycle Distribution, G1","[4]; L1210, 250 μM, 18 h after 6Gy",21.2 percentage of total
same,"Cell Cycle Distribution, G2 + M","[4]; L1210, 250 μM, 18 h after 6Gy",52.7 percentage of total
same,"Cell Cycle Distribution, S","[4]; L1210, 250 μM, 18 h after 6Gy",24.6 percentage of total
same,"Cell Cycle Distribution, sub G1","[4]; L1210, 250 μM, 18 h after 6Gy",3.1 percentage of total
same,"Cell Cycle Distribution, G1","[4]; L1210, 500 μM, 18 h after 6Gy",18.2 percentage of total
same,"Cell Cycle Distribution, G2 + M","[4]; L1210, 500 μM, 18 h after 6Gy",61.8 percentage of total
same,"Cell Cycle Distribution, S","[4]; L1210, 500 μM, 18 h after 6Gy",16.0 percentage of total
same,"Cell Cycle Distribution, sub G1","[4]; L1210, 500 μM, 18 h after 6Gy",5.0 percentage of total
same,Checkpoint remark,"[4]; L1210, 500 μM, 18 h after 6Gy",G1 abrogation
same,Checkpoint abrogation,"[4]; L1210, 6 Gy",abrogated G1 arrest
same,IC50,[5],680 ± 97 µM
same,IC50,"[6]; colon lines, read-out: IC50 range in human colon cancer cell lines",14 to 88 µM
same,IC50,"[6]; leukaemia lines, read-out: IC50 range in leukaemia cells",393 to 680 µM
same,IC50,"[6]; ovarian lines, read-out: IC50 range in ovarian cells",275 to 333 µM
